# Patent publication US10563263B2, “Genetic polymorphisms associated with statin response and cardiovascular diseases, methods of detection and uses thereof” (CELERA CORPORATION, priority 2010, dated 2020)
# Tests used:
# [1] = tested on: CVD (CHD or stroke); experiment: Meta-analysis of CARE and WOSCOPS combined, synergy index, CVD endpoint; format: in vivo, human
# Description: Tables 4-5 provide meta-analyses of CARE and WOSCOPS combined (2nd section of each table) for two endpoints (CHD and CVD) and three genetic models (dominant, recessive, and additive), as well as logistic regression analyses of CARE (3rd section of each table) and WOSCOPS (4th section of each table) individually.
# Tables 12 and 17 provide results of meta-analysis of the CARE and WOSCOPS sample sets combined by direct genotyping and by imputing genotypes.
# “P” indicates the p-value, and “P(R)” (or “P.R.”) indicates the p-value random effect. Both of these are p-values corresponding to a statistical test of whether the combined synergy index is equal to one but use different assumptions to derive the p-value. “P” is calculated using a fixed effects model, and “P(R)” is calculated using a random effects model.
# “OR” indicates the odds ratio (synergy index) calculated from a fixed effects model, and “OR(R)” (or “OR.R.”) indicates the odds ratio (synergy index) calculated from a random effects model.
# [2] = tested on: recurrent MI; experiment: CARE: CHD statin response (recurrent MI) by SNP genotype, hazard ratio pravastatin vs placebo (Table 22); format: in vivo, human; details: rs873134 (hCV2652047), ref = placebo
# Description: In the analysis for which the results are provided in Table 22, the endpoint was recurrent MI, and the analysis was adjusted for age, gender, hypertension, diabetes, base LDL and HDL, and whether an individual was a current smoker.
# In Tables 20-22, certain columns are labeled “RESP”, “PLACEBO, OR “ALL”. “RESP” is for statin response as measured by comparing risk (risk for stroke, including TIA, in Tables 20-21, and risk for CHD, specifically recurrent MI, in Table 22) in the pravastatin-treated group with risk in the placebo-treated group, “PLACEBO” is the placebo-treated group, and “ALL” is the combination of the placebo-treated group and the pravastatin-treated group. “RESP” is the analysis to assess statin response in the indicated genotype group.
# “EVENTS” indicates the total number of events (stroke or TIA for Tables 20-21, and recurrent MI for Table 22) in individuals with the indicated genotype.
# “HR” indicates the hazard ratio.
# CARE was a secondary prevention trial and WOSCOPS was a primary prevention trial.
# Thus, SNP rs873134 is an example of a SNP that is associated with statin response for reducing risk for both stroke and CHD. In the analysis for which the results are provided in Table 22, the endpoint was recurrent MI, and the analysis was adjusted for age, gender, hypertension, diabetes, base LDL and HDL, and whether an individual was a current smoker.
compound,measurement,setting,value
"CC[C@H](C)C(=O)O[C@H]1C[C@H](O)C=C2C=C[C@H](C)[C@H](CC[C@@H](O)C[C@@H](O)CC(=O)O)[C@H]21 [Pravastatin, pravastatin]",OR(R),[1]; rs6040636 allele T RECESSIVE Imputed,1.7021
same,OR(R),[1]; rs6040638 allele C ADDITIVE Imputed,1.3722
same,OR(R),[1]; rs6040638 allele C GENOTYPIC Imputed,1.9531
same,OR(R),[1]; rs6040638 allele C RECESSIVE Imputed,1.7021
same,OR(R),[1]; rs6040644 allele A ADDITIVE Imputed,1.3722
same,OR(R),"[1]; rs9309988 allele G (A1), DOMINANT, Imputed",1.9381
same,OR(R),"[1]; rs9309989 allele C (A1), DOMINANT, Genotyped",1.9491
same,OR(R),"[1]; rs9310221 allele A (A1), DOMINANT, Imputed",1.8519
same,OR(R),"[1]; rs9327555 allele T (A1), DOMINANT, Imputed",0.5753
same,OR(R),"[1]; rs9454967 allele G (A1), ADDITIVE, Imputed",2.1926
same,OR(R),"[1]; rs9454967 allele G (A1), DOMINANT, Imputed",2.4795
same,OR(R),"[1]; rs9471295 allele T (A1), DOMINANT, Imputed",1.5391
same,OR(R),"[1]; rs9477007 allele A (A1), ADDITIVE, Imputed",1.429
same,OR(R),"[1]; rs9477007 allele A (A1), GENOTYPIC, Imputed",2.0759
same,OR(R),"[1]; rs9487279 allele T (A1), DOMINANT, Imputed",0.5948
same,OR(R),"[1]; rs9555973 allele G (A1), ADDITIVE, Imputed",0.5479
same,OR(R),"[1]; rs9555973 allele G (A1), DOMINANT, Imputed",0.5157
same,OR(R),"[1]; rs9557510 allele G (A1), ADDITIVE, Imputed",1.6102
same,OR(R),"[1]; rs9557510 allele G (A1), DOMINANT, Imputed",1.7706
same,OR(R),"[1]; rs9560584 allele T (A1), DOMINANT, Imputed",0.512
same,OR(R),"[1]; rs9588770 allele T (A1), DOMINANT, Imputed",0.5187
same,OR(R),"[1]; rs9588848 allele C (A1), ADDITIVE, Imputed",0.5369
same,OR(R),"[1]; rs9588848 allele C (A1), DOMINANT, Imputed",0.5009
same,OR(R),"[1]; rs9812206 allele G (A1), ADDITIVE, Imputed",0.4469
same,OR(R),"[1]; rs9812206 allele G (A1), DOMINANT, Imputed",0.4369
same,OR(R),"[1]; rs9813552 allele G (A1), ADDITIVE, Imputed",0.4493
same,OR(R),"[1]; rs9813552 allele G (A1), DOMINANT, Imputed",0.4387
same,OR(R),"[1]; rs9815037 allele T (A1), ADDITIVE, Imputed",0.4461
same,OR(R),"[1]; rs9815037 allele T (A1), DOMINANT, Imputed",0.4354
same,OR(R),"[1]; rs9825349 allele A (A1), ADDITIVE, Imputed",0.4461
same,OR(R),"[1]; rs9825349 allele A (A1), DOMINANT, Imputed",0.4354
same,OR(R),"[1]; rs9834217 allele T (A1), ADDITIVE, Imputed",0.4466
same,OR(R),"[1]; rs9834217 allele T (A1), DOMINANT, Imputed",0.4359
same,OR(R),"[1]; rs9840460 allele T (A1), ADDITIVE, Imputed",0.4461
same,OR(R),"[1]; rs9840460 allele T (A1), DOMINANT, Imputed",0.4354
same,OR(R),"[1]; rs9840756 allele A (A1), ADDITIVE, Imputed",0.4458
same,OR(R),"[1]; rs9840756 allele A (A1), DOMINANT, Imputed",0.435
same,OR(R),"[1]; rs9844801 allele C (A1), DOMINANT, Imputed",1.9381
same,OR(R),"[1]; rs9869187 allele C (A1), ADDITIVE, Imputed",0.4651
same,OR(R),"[1]; rs9869187 allele C (A1), DOMINANT, Imputed",0.4704
same,OR(R),"[1]; rs9872327 allele T (A1), DOMINANT, Imputed",1.9381
same,OR(R),"[1]; rs9881685 allele A (A1), ADDITIVE, Imputed",0.4438
same,OR(R),"[1]; rs9881685 allele A (A1), DOMINANT, Imputed",0.4332
same,OR(R),"[1]; rs9909499 allele C (A1), DOMINANT, Imputed",1.4669
same,OR(R),"[1]; rs9911847 allele G (A1), DOMINANT, Imputed",0.6755
same,OR(R),"[1]; rs9946886 allele G (A1), RECESSIVE, Imputed",0.3084
same,OR(R),"[1]; rs9958823 allele A (A1), ADDITIVE, Imputed",1.5292
same,OR(R),"[1]; rs9965248 allele T (A1), ADDITIVE, Imputed",1.4965
same,"HR_RESP (hazard ratio pravastatin vs placebo, CHD)","[2]; MODE DOM, genotype TC + TT",0.85
same,"HR_RESP (hazard ratio pravastatin vs placebo, CHD)","[2]; MODE GEN, genotype CC",0.48
same,"HR_RESP (hazard ratio pravastatin vs placebo, CHD)","[2]; MODE GEN, genotype TC",1
same,"HR_RESP (hazard ratio pravastatin vs placebo, CHD)","[2]; MODE GEN, genotype TT",0.57
